{"source": "patent US10450299B2", "about": "“Substituted quinazoline derivatives as DNA methyltransferase inhibitors” (Pierre Fabre Medicament, priority 2015, dated 2019)", "target": "T1, human C-terminal DNMT3A (a.a. 623-908) (Homo sapiens, UniProt Q9Y6K1)", "T1 construct": "The human C-terminal DNMT3A (a.a. 623-908); made in house", "T1 sequence (Q9Y6K1 627-912)": "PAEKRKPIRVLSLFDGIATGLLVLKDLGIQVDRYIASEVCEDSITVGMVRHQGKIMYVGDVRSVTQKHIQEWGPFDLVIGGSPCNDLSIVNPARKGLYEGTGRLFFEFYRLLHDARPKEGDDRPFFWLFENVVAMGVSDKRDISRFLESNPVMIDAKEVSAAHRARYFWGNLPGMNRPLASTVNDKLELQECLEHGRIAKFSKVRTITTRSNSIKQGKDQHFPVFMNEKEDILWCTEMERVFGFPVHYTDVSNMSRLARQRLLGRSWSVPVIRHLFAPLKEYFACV", "experiment": "DNMT3A assay (restriction-based fluorescence assay)", "format": "biochemical", "excerpt": "DNMT3A enzyme inhibition was adapted from the restriction-based fluorescence assay protocol described in Ceccaldi et al. (ChemBioChem 2011, 12, 1337-45). Briefly, a 5′-labelled biotin oligonucleotide is hybridized to its complementary strand labelled with 6-carboxyfluorescein at the 3′-end into a 384 well microplate (black Optiplates; Perkin Elmer) pre-coated with avidin. The duplex contains a unique CpG site overlapping with a restriction site of a methylation sensitive restriction enzyme. The human C-terminal DNMT3A (a.a. 623-908), produced as described in Gros et al. (Nucleic Acids Research 2013 41(19):e185), was added in each well (200 ng/well) and mixed with the chemical compounds at desired concentrations and freshly prepared AdoMet (20 μM final concentration) to start the reaction in a total volume of 50 μL. After 1 hour incubation at 37° C. each well were washed three times with PBS, Tween-20 0.05%, NaCl (500 mM) and three more times with PBST. Specific fluorescent signals were detected with the methylation-sensitive restriction enzyme HpyCH4IV (NEB) as described and measured on a Perkin Elmer Envision detector. The percentage of inhibition is reported. The formula used to calculate the percentage of inhibition is [(X−Y)/X]×100, where X is the signal determined in the absence of the inhibitor and Y is the signal obtained in the presence of the inhibitor. The concentration at which 50% of efficacy of inhibition is observed (EC50) was determined by analysis of a concentration range of the tested compound in triplicates. The non-linear regression fittings with sigmoidal dose-response (variable slope) were performed with GraphPad Prism 4.03 (GraphPad Software)."}
{"smiles": "Clc1nc(NCCCc2ccccc2)c2ccc(OCC3CCN(CCNc4ccncc4)CC3)cc2n1", "note": "[Compound H]", "values": [{"measurement": "inhibition at 1 µM", "setting": "compound at 1 μM", "result": 0, "unit": "%"}, {"measurement": "inhibition at 3.2 µM", "setting": "compound at 3.2 μM", "result": 32, "unit": "%"}]}
